The text below walks through data of patent publication US6727264B1 (Synaptic Pharmaceutical Corporation, priority 2001, dated 2004).

Molecules are shown by their SMILES.

rat MCH-1, sequence (P97639 whole entry): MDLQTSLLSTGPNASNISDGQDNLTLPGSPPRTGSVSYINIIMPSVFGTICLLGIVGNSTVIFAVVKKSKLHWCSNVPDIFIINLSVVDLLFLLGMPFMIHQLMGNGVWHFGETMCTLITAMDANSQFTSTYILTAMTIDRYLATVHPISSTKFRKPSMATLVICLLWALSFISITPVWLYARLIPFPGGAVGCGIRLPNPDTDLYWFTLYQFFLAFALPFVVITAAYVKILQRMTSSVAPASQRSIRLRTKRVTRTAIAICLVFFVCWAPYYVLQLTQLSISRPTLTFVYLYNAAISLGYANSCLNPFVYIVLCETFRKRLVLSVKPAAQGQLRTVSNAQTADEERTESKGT

This experiment concerns the target rat MCH-1 (Rattus norvegicus, UniProt P97639). Nature of the experiment: Radioligand binding assay at cloned rat MCH1 receptor ([3H] Compound A). The arrangement: host or cells: Peak rapid 293 (Peakr293) cells, transient calcium phosphate transfection, membranes. To be noted: cloned rat MCH1 receptor; 0.08 nM [3H] Compound A; Peakr293 cell membranes; read-out: Ki (nM) rMCH1.
With `Cc1cccc2c(CCCN3CCC(c4cccc(NC(=O)C(C)C)c4)CC3)c(-c3ccc(I)cc3)[nH]c12` [Example 746], the Ki turned out to be 8 nM. `CC(C)C(=O)Nc1cccc(C2CCN(CCCc3c(-c4ccc(I)cc4)n(-c4ccccc4)c4ccccc34)CC2)c1` [Example 747]: the Ki was found to be 161 nM.

In the case of `CC(C)C(=O)Nc1cccc(C2CCN(CCCc3c(-c4ccc(I)cc4)n(C)c4ccccc34)CC2)c1` [Example 748], the inhibition constant Ki turned out to be 3.1 nM.

For the molecule `CC(C)C(=O)Nc1cccc(C2CCN(CCCc3c(-c4ccc(I)cc4)[nH]c4c3ccc3ccccc34)CC2)c1` [Example 749], the Ki came to 23.2 nM. Regarding `CC(C)C(=O)Nc1cccc(C2CCN(CCCc3c(-c4ccc(I)cc4)[nH]c4ccccc34)CC2)c1` [Example 750], the inhibition constant Ki was determined as 2.6 nM. Next, `CC(C)C(=O)Nc1cccc(C2CCN(CCCc3c(-c4cccc(Br)c4)[nH]c4ccc(OC(F)(F)F)cc34)CC2)c1` [Example 751]: 12.4 nM; `CC(C)C(=O)Nc1cccc(C2CCN(CCCc3c(-c4ccc(Br)cc4)[nH]c4c3ccc3ccccc34)CC2)c1` [Example 752]: 21.7 nM; `Cc1cccc2c(CCCN3CCC(c4cccc(NC(=O)C(C)C)c4)CC3)c(-c3ccc(Br)cc3)[nH]c12` [Example 753]: 16.6 nM. The result for `CC(C)C(=O)Nc1cccc(C2CCN(CCCc3c(-c4ccc(Br)cc4)[nH]c4ccc(OC(F)(F)F)cc34)CC2)c1` [Example 754] reads 49.2 nM; that for `CC(C)C(=O)Nc1cccc(C2CCN(CCCc3c(-c4cccc(Br)c4)[nH]c4c3ccc3ccccc34)CC2)c1` [Example 755], 23.8 nM.

Consider `CC(C)C(=O)Nc1cccc(C2CCN(CCCc3c(-c4ccc(Br)cc4)[nH]c4ccccc34)CC2)c1` [Example 756], for which the inhibitory constant (Ki) was 4.2 nM.

On to `CC(C)C(=O)Nc1cccc(C2CCN(CCCc3c(-c4cccc(Br)c4)n(-c4ccccc4)c4ccccc34)CC2)c1` [Example 757], for which the inhibition constant (Ki) was found to be 6.9 nM. Next, `CC(C)C(=O)Nc1cccc(C2CCN(CCCc3c(-c4cccc(Br)c4)n(C)c4ccccc34)CC2)c1` [Example 758]: 110 nM; `CC(C)C(=O)Nc1cccc(C2CCN(CCCc3c(-c4ccc(Br)cc4)n(C)c4ccccc34)CC2)c1` [Example 759]: 9.3 nM. Regarding `CC(C)C(=O)Nc1cccc(C2CCN(CCCc3c(-c4ccc(Br)cc4)n(-c4ccccc4)c4ccccc34)CC2)c1` [Example 760], the Ki was determined as 92.3 nM.

As to `COc1ccc2[nH]c(-c3ccc(Br)cc3)c(CCCN3CCC(c4cccc(NC(=O)C(C)C)c4)CC3)c2c1` [Example 761], the Ki was determined as 15.9 nM. Consider `Cc1cccc2c(CCCN3CCC(c4cccc(NC(=O)C(C)C)c4)CC3)c(-c3cccc(Br)c3)[nH]c12` [Example 762], for which the Ki came out at 6.3 nM. Next, `Cc1ccc2[nH]c(-c3cccc(Br)c3)c(CCCN3CCC(c4cccc(NC(=O)C(C)C)c4)CC3)c2c1` [Example 763]: 1.9 nM; `Cc1ccc2[nH]c(-c3ccc(Br)cc3)c(CCCN3CCC(c4cccc(NC(=O)C(C)C)c4)CC3)c2c1` [Example 764]: 14.6 nM; `COc1ccc2[nH]c(-c3cccc(Br)c3)c(CCCN3CCC(c4cccc(NC(=O)C(C)C)c4)CC3)c2c1` [Example 765]: 6.5 nM. Next, `CC(C)C(=O)Nc1cccc(C2CCN(CCCc3c(-c4cccc([N+](=O)[O-])c4)[nH]c4ccccc34)CC2)c1` [Example 766]: 7.6 nM; `CC(C)C(=O)Nc1cccc(C2CCN(CCCc3c(-c4cccc([N+](=O)[O-])c4)[nH]c4c3ccc3ccccc34)CC2)c1` [Example 767]: 34.8 nM; `CC(C)C(=O)Nc1cccc(C2CCN(CCCc3c(-c4cccc([N+](=O)[O-])c4)[nH]c4ccc(OC(F)(F)F)cc34)CC2)c1` [Example 768]: 17.5 nM. Next, `Cc1ccc2[nH]c(-c3cccc([N+](=O)[O-])c3)c(CCCN3CCC(c4cccc(NC(=O)C(C)C)c4)CC3)c2c1` [Example 769]: 12.4 nM; `COc1ccc2[nH]c(-c3cccc([N+](=O)[O-])c3)c(CCCN3CCC(c4cccc(NC(=O)C(C)C)c4)CC3)c2c1` [Example 770]: 12.7 nM.
